# Where a SMILES comes first, the peptide text is derived from it. [ ]: non-standard residue; d: D form.
# What was measured:
# P. aeruginosa PaO1 [1] = experiment: Adhesion of bacteria to A549 cells; assay type: cell-based; settings: 0.25 or 0.5 mg/mL, 2 h
# Method: (§1) Subsequently, infected A549 cells were washed five times with pre-warmed PBS and lysed with 0.5% Triton X-100. Diluted lysates were plated onto blood agar (Blood-Agar Columbia, Becton Dickinson Microbiology Systems, USA) and incubated at 37 °C for 24 h for enumeration of developed colonies and then the determination of the number of bacteria that attached to A549 cells.
# E. coli ATCC 25922 [2] = experiment: Adhesion of bacteria to A549 cells; assay type: cell-based; settings: 0.25 or 0.5 mg/mL, 2 h
# Method: as §1
# A. baumannii ATCC 17978 [3] = experiment: Adhesion of bacteria to A549 cells; assay type: cell-based; settings: 2 h
# Method: as §1
# Figure S3. OmpA inhibitor hexapeptides reduce A. baumannii adherence to A549 cells. A549 cells were infected with 10^8 CFU/mL of ATCC 17978 strain during 2 h in presence of AOA-1, […]
# of bacterial adherence was calculated as follow: [(number of colonies of treated A549 cells with peptide / number of colonies of non-treated cells) x 100]. Representative results of three independent experiments are shown; data are means ± SEM. *P<0.05: between untreated and […]
# [4] = Peptide toxicity, MTT assay; assay type: cell-based, human; settings: human, A549 cells
# Method: Human type II pneumocyte cell line A549 derived from a human lung carcinoma were obtained from American Type Culture Collection (LGC, UK) and were grown in DMEM medium (Invitrogen, Spain) supplemented with 10% heat-inactivated fetal bovine serum, vancomycin (50 μg/mL), gentamicin (20 μg/mL), amphotericin B (0.25 μg/mL) (Invitrogen, Spain) and 1% HEPES (Invitrogen, Spain) in a humidified incubator, 5% CO2 at 37 °C. A549 cells were routinely passaged every 3–4 days. The cells were seeded 24 h in 96-well plates for cellular viability assay, and in 24 well plates for adhesion and immnunofluorescence assays.
# Peptide toxicity. […] Prior the evaluation of the peptides cytotoxicity, A549 cells were washed three times with prewarmed PBS. Then, peptides cytotoxicity was initially assessed quantitatively by monitoring the mitochondrial reduction activity using the MTT assay as described previously. The percentage of […] was calculated from the optical density (OD) as follow: [(OD of treated cells / mean OD of non-treated cell) × 100].
# Table S2. Percentages of A549 cellular viability assessed through mitochondrial reduction
# activity (MTT assay) in presence of anti-OmpA hexapeptides and control peptides (SXV4 and
# COL). COL: colistin. ND: not determined.
# Peptides 0.25 mg/mL 0.5 mg/mL 1 mg/mL 5 mg/mL
# E. coli OmpA = biological target: T1, E. coli OmpA (Escherichia coli, UniProt P0A910); experiment: NMR detection of binding (1H, STD, PFG diffusion); settings: AOA-2 750 μM, OmpA 8 μM, 1 mM Triton X-100, pH 7.3, 25 °C
# T1 construct: A recombinant 37 kDa polypeptide fragment containing the transmembrane and periplasmatic domains of the E. coli OmpA protein; purchased NovoPro (China)
# T1 sequence (P0A910 22-346): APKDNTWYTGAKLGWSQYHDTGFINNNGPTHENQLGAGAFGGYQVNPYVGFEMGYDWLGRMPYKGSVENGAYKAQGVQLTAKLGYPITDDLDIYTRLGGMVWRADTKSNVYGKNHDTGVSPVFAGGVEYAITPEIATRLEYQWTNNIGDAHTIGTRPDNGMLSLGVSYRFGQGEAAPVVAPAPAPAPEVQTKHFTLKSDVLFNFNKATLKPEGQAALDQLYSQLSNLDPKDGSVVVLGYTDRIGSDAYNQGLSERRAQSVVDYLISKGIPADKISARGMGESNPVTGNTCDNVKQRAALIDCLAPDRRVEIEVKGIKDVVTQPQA
# Method: A recombinant 37 kDa polypeptide fragment containing the transmembrane and periplasmatic domains of the E. coli OmpA protein was purchased from NovoPro (China). OmpA samples contained Triton X-100 to mimic the membrane environment.
# All NMR experiments were recorded at 25 °C on a Bruker Avance 800 MHz spectrometer equipped with a cryoprobe.
# Saturation transfer difference[38] (STD) experiments were obtained using a pseudo-2D pulse sequence for the interleaved acquisition of on-resonance and off-resonance spectra. Total saturation time was 3 seconds. Suppression of the residual water signal was achieved by excitation sculpting.
# Diffusion NMR experiments were performed using the LED pulse sequence[40] with gradient lengths of 3 ms and a diffusion delay of 110 ms. The total inter-scan delay was 4.5 s.
# A. baumannii ATCC 17978 [5] = experiment: Fibronectin-binding assay; assay type: cell-based; settings: A. baumannii ATCC 17978, 0.25 or 0.5 mg/mL, 2 h
# Method: (§2) Fibronectin-binding assay was performed as described previously. Briefly, A. baumannii ATCC 17978, P. aeruginosa PaO1, and E. coli ATCC 25922 grown overnight at 37 °C in LB were resuspended in PBS and collected by centrifugation at 5,000 × g for 10 min. […] Then, 50 µL of bacterial suspension were mixed with 50 µL of PBS, added to fibronectin coated wells and incubated 2 h at room temperature for bacterial adsorption. Non-adhered bacteria were discarded and wells were washed six times with sterile PBS to remove unbound bacteria. Adherent bacteria were then collected with 125 µL of sterile PBS containing 0.5% Triton X-100. Diluted lysates were plated onto sheep blood agar and incubated at 37 °C for 24 h for enumeration of developed colonies and then the determination of the number of bacteria that attached to fibronectin.
# P. aeruginosa PaO1 [6] = experiment: Fibronectin-binding assay; assay type: cell-based; settings: P. aeruginosa PaO1, 0.25 or 0.5 mg/mL, 2 h
# Method: as §2
# E. coli ATCC 25922 [7] = experiment: Fibronectin-binding assay; assay type: cell-based; settings: E. coli ATCC 25922, 0.25 or 0.5 mg/mL, 2 h
# Method: as §2
smiles,measurement,setting,value
N=C(N)NCCC[C@@H]1NC(=O)[C@H]2CCCN2C(=O)[C@H](Cc2c[nH]c3ccccc23)NC(=O)[C@H](CCCNC(=N)N)NC(=O)[C@H]2CCCN2C(=O)[C@H](Cc2c[nH]c3ccccc23)NC1=O [AOA-2] (cyclo(RW[dP]RW[dP])),adherence of P. aeruginosa to A549 cells (in words),P. aeruginosa PaO1 [1],significant reduction in adherence
same,adherence of E. coli to A549 cells (in words),E. coli ATCC 25922 [2],significant reduction in adherence
same,reduction in the adherence of A. baumannii to A549 cells,"A. baumannii ATCC 17978 [3]; 0.25 mg/mL, 10^8 CFU/mL",more than 60%
same,"ability to reduce A. baumannii adherence to A549 cells, rank among synthesized peptides (in words)","A. baumannii ATCC 17978 [3]; 0.25, 0.5, 1 mg/mL",greatest ability to reduce the A. baumannii adherence to A549 cells
same,"viability at 48 h, 250 µg/mL",[4],98.09 ± 0.27%
same,"viability at 48 h, 500 µg/mL",[4],98.33 ± 0.4%
same,"viability at 48 h, 1000 µg/mL",[4],98.48 ± 0.55%
same,binding to OmpA by NMR (in words),E. coli OmpA,interacting with OmpA
same,bacterial adherence to fibronectin (in words),A. baumannii ATCC 17978 [5],significant decrease in the bacterial adherence to fibronectin
same,bacterial adherence to fibronectin (in words),P. aeruginosa PaO1 [6],significant decrease in the bacterial adherence to fibronectin
same,bacterial adherence to fibronectin (in words),E. coli ATCC 25922 [7],significant decrease in the bacterial adherence to fibronectin

# From paper PMC5666006, “Combating virulence of Gram-negative bacilli by OmpA inhibition” (Scientific Reports, 2017)
